Laboratory results reported in patent US9999619B2, “Piperidin-4-yl azetidine derivatives as JAK1 inhibitors” (Incyte Corporation, priority 2010, dated 2018).

Tests used:
Type in all cases: biochemical
Jak2 (a.a. 828-1132) = Jak2 (a.a. 828-1132) (Homo sapiens (Human), UniProt O60674); test: In vitro JAK kinase assay (HTRF, phosphorylation of a biotinylated peptide), JAK2; conditions: measured at 1 mM ATP
Protocol: (§1) Compounds herein were tested for inhibitory activity of JAK targets according to the following in vitro assay described in Park et al., Analytical Biochemistry 1999, 269, 94-104. The catalytic domains of human JAK1 (a.a. 837-1142), Jak2 (a.a. 828-1132) and Jak3 (a.a. 781-1124) with an N-terminal His tag were expressed using baculovirus in insect cells and purified. The catalytic activity of JAK1, JAK2 or JAK3 was assayed by measuring the phosphorylation of a biotinylated peptide. The phosphorylated peptide was detected by homogenous time resolved fluorescence (HTRF). […] Reactions were carried out at room temperature for 1 hr and then stopped with 20 μL 45 mM EDTA, 300 nM SA-APC, 6 nM Eu-Py20 in assay buffer (Perkin Elmer, Boston, Mass.). Binding to the Europium labeled antibody took place for 40 minutes and HTRF signal was measured on a Fusion plate reader (Perkin Elmer, Boston, Mass.).

[1] = target: human JAK1 (a.a. 837-1142) (Homo sapiens, UniProt P23458); test: In vitro JAK kinase assay (HTRF, phosphorylation of a biotinylated peptide), JAK1; conditions: measured at 1 mM ATP
Protocol: as §1

[2] = target: human JAK1 (a.a. 837-1142); test: as above; conditions: ratio of JAK2 IC50 to JAK1 IC50, measured at 1 mM ATP
Protocol: as §1

Chain of Jak2 (a.a. 828-1132) (O60674 828-1132): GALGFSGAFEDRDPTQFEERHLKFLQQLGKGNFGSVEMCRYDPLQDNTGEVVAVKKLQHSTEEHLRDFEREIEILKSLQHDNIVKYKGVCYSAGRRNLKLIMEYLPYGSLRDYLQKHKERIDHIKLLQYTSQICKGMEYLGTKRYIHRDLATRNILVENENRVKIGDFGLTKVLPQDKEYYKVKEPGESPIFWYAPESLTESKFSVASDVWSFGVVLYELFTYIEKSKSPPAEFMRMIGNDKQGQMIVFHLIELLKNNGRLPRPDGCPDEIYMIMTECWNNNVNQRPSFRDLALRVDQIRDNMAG

Row | IC50 (Jak2 (a.a. 828-1132)) | IC50 [1] | Compound | IC50 Ratio JAK2/JAK1 [2]
1 | 50 to 100 nM | ≤ 5 nM | [2H]C1([2H])CN(C(=O)c2ccnc(C(F)(F)F)c2F)CC([2H])([2H])C1([2H])N1CC(CC#N)(n2cc(-c3ncnc4[nH]ccc34)cn2)C1 [Example 364, {1-{1-[3-Fluoro-2-(trifluoromethyl)isonicotinoyl]3,3,4,5,5-pentadeuteropiperidin-4-yl}-3-[4-(7H-pyrrolo[2,3-d]pyrimidin-4-yl)-1H-pyrazol-1-yl]azetidin-3-yl}acetonitrile] | –
2 | 10 to 50 nM | – | N#CCC1(n2cc(-c3ncnc4[nH]ccc34)cn2)CN(C2CCN(C(=O)OCC3CCCCC3)CC2)C1 [Example 397, cyclohexylmethyl 4-{3-(cyanomethyl)-3-[4-(7H-pyrrolo[2,3-d]pyrimidin-4-yl)-1H-pyrazol-1-yl]azetidin-1-yl}piperidine-1-carboxylate] | –
3 | – | – | N#CCC1(n2cc(-c3ncnc4[nH]ccc34)cn2)CN(C2CCN(Cc3ccc(F)cc3F)CC2)C1 [Example 217, {1-[1-(2,4-difluorobenzyl)piperidin-4-yl]-3-[4-(7H-pyrrolo[2,3-d]pyrimidin-4-yl)-1H-pyrazol-1-yl]azetidin-3-yl}acetonitrile] | 5.8
4 | 50 to 100 nM | – | N#CCC1(n2cc(-c3ncnc4[nH]ccc34)cn2)CN(C2CCN(C(=O)c3ccc(C#N)c(F)c3)CC2)C1 [Example 66, 4-[(4-{3-(cyanomethyl)-3-[4-(7H-pyrrolo[2,3-d]pyrimidin-4-yl)-1H-pyrazol-1-yl]azetidin-1-yl}piperidin-1-yl)carbonyl]-2-fluorobenzonitrile] | –
5 | 10 to 50 nM | 5 to 20 nM | CC1CC(N2CC(CC#N)(n3cc(-c4ncnc5[nH]ccc45)cn3)C2)CCN1Cc1c(F)cccc1Cl (single isomer, unassigned) [Example 245, {1-[1-(2-chloro-6-fluorobenzyl)-2-methylpiperidin-4-yl]-3-[4-(7H-pyrrolo[2,3-d]pyrimidin-4-yl)-1H-pyrazol-1-yl]azetidin-3-yl}acetonitrile] | –
6 | 10 to 50 nM | – | Cc1ccc(C#N)c(N2CCC(C(=O)N3CCC(N4CC(CC#N)(n5cc(-c6ncnc7[nH]ccc67)cn5)C4)CC3)CC2)n1 [Example 108, 2-{4-[(4-{3-(cyanomethyl)-3-[4-(7H-pyrrolo[2,3-d]pyrimidin-4-yl)-1H-pyrazol-1-yl]azetidin-1-yl}piperidin-1-yl)carbonyl]piperidin-1-yl}-6-methylnicotinonitrile] | –
7 | > 100 nM | ≤ 5 nM | N#CCC1(n2cc(-c3ncnc4[nH]ccc34)cn2)CN(C2CCN(C(=O)c3ccnc(C(F)(F)F)c3F)CC2)C1 [Example 1, {1-{1-[3-Fluoro-2-(trifluoromethyl)isonicotinoyl]piperidin-4-yl}-3-[4-(7H-pyrrolo[2,3-d]pyrimidin-4-yl)-1H-pyrazol-1-yl]azetidin-3-yl}acetonitrile] | –
8 | 10 to 50 nM | – | CCS(=O)(=O)N1CCC(N2CC(CC#N)(n3cc(-c4ncnc5[nH]ccc45)cn3)C2)CC1 [Example 255, {1-[1-(ethylsulfonyl)piperidin-4-yl]-3-[4-(7H-pyrrolo[2,3-d]pyrimidin-4-yl)-1H-pyrazol-1-yl]azetidin-3-yl}acetonitrile] | –
9 | > 100 nM | 5 to 20 nM | N#CCC1(n2cc(-c3ncnc4[nH]ccc34)cn2)CN(C2CCN(C(=O)c3ccnc(C(F)(F)F)n3)CC2)C1 [Example 85, [3-[4-(7H-pyrrolo[2,3-d]pyrimidin-4-yl)-1H-pyrazol-1-yl]-1-(1-{[2-(trifluoromethyl)pyrimidin-4-yl]carbonyl}piperidin-4-yl)azetidin-3-yl]acetonitrile] | –
10 | 50 to 100 nM | ≤ 5 nM | [2H]C1(N2CC(CC#N)(n3cc(-c4ncnc5[nH]ccc45)cn3)C2)CCN(C(=O)c2ccnc(C(F)(F)F)c2F)CC1 [Example 363, {1-{1-[3-Fluoro-2-(trifluoromethyl)isonicotinoyl]-4-deuteropiperidin-4-yl}-3-[4-(7H-pyrrolo[2,3-d]pyrimidin-4-yl)-1H-pyrazol-1-yl]azetidin-3-yl}acetonitrile] | –
11 | 10 to 50 nM | 5 to 20 nM | CC1CC(N2CC(CC#N)(n3cc(-c4ncnc5[nH]ccc45)cn3)C2)CCN1Cc1c(F)cccc1Cl (single isomer, unassigned) [Example 244, {1-[1-(2-chloro-6-fluorobenzyl)-2-methylpiperidin-4-yl]-3-[4-(7H-pyrrolo[2,3-d]pyrimidin-4-yl)-1H-pyrazol-1-yl]azetidin-3-yl}acetonitrile] | –
12 | 10 to 50 nM | ≤ 5 nM | N#CCC1(n2cc(-c3ncnc4[nH]ccc34)cn2)CN(C2CCN(C(=O)Nc3ccc(F)cc3C(F)(F)F)CC2)C1 [Example 154, 4-{3-(Cyanomethyl)-3-[4-(7H-pyrrolo[2,3-d]pyrimidin-4-yl)-1H-pyrazol-1-yl]azetidin-1-yl}-N-[4-fluoro-2-(trifluoromethyl)phenyl]piperidine-1-carboxamide] | –
13 | 50 to 100 nM | – | CSc1ccc(C(=O)N2CCC(N3CC(CC#N)(n4cc(-c5ncnc6[nH]ccc56)cn4)C3)CC2)cc1F [Example 62, {1-{1-[3-fluoro-4-(methylthio)benzoyl]piperidin-4-yl}-3-[4-(7H-pyrrolo[2,3-d]pyrimidin-4-yl)-1H-pyrazol-1-yl]azetidin-3-yl}acetonitrile] | –
14 | ≤ 10 nM | ≤ 5 nM | N#CCC1(n2cc(-c3ncnc4[nH]ccc34)cn2)CN(C2CCN(C(=O)c3cccc(Cl)c3)CC2)C1 [Example 19, {1-[1-(3-chlorobenzoyl)piperidin-4-yl]-3-[4-(7H-pyrrolo[2,3-d]pyrimidin-4-yl)-1H-pyrazol-1-yl]azetidin-3-yl}acetonitrile] | –
15 | ≤ 10 nM | ≤ 5 nM | N#CCC1(n2cc(-c3ncnc4[nH]ccc34)cn2)CN(C2CCN(C(=O)c3ccc(-c4cccnc4)cc3F)CC2)C1 [Example 120, {1-[1-(2-fluoro-4-pyridin-3-ylbenzoyl)piperidin-4-yl]-3-[4-(7H-pyrrolo[2,3-d]pyrimidin-4-yl)-1H-pyrazol-1-yl]azetidin-3-yl}acetonitrile] | –
16 | ≤ 10 nM | ≤ 5 nM | Cc1csc(C(=O)N2CCC(N3CC(CC#N)(n4cc(-c5ncnc6[nH]ccc56)cn4)C3)CC2)c1 [Example 79, {1-{1-[(4-meth1-2-thienyl)carbonyl]piperidin-4-yl}-3-[4-(7H-pyrrolo[2,3-d]pyrimidin-4-yl)-1H-pyrazol-1-yl]azetidin-3-yl}acetonitrile] | –
17 | 10 to 50 nM | – | CS(=O)(=O)N1CCC(N2CC(CC#N)(n3cc(-c4ncnc5[nH]ccc45)cn3)C2)CC1 [Example 254, {1-[1-(methylsulfonyl)piperidin-4-yl]-3-[4-(7H-pyrrolo[2,3-d]pyrimidin-4-yl)-1H-pyrazol-1-yl]azetidin-3-yl}acetonitrile] | –
18 | 10 to 50 nM | – | N#CCC1(n2cc(-c3ncnc4[nH]ccc34)cn2)CN(C2CCN(S(=O)(=O)C3CC3)CC2)C1 [Example 256, {1-[1-(cyclopropylsulfonyl)piperidin-4-yl]-3-[4-(7H-pyrrolo[2,3-d]pyrimidin-4-yl)-1H-pyrazol-1-yl]azetidin-3-yl}acetonitrile] | –
19 | 10 to 50 nM | – | N#CCC1(n2cc(-c3ncnc4[nH]ccc34)cn2)CN(C2CCN(C(=O)c3ccc(-c4nccs4)c(F)c3)CC2)C1 [Example 122, {1-{1-[3-fluoro-4-(1,3-thiazol-2-yl)benzoyl]piperidin-4-yl}-3-[4-(7H-pyrrolo[2,3-d]pyrimidin-4-yl)-1H-pyrazol-1-yl]azetidin-3-yl}acetonitrile] | –
20 | ≤ 10 nM | – | COc1cc(C(F)(F)F)sc1C(=O)N1CCC(N2CC(CC#N)(n3cc(-c4ncnc5[nH]ccc45)cn3)C2)CC1 [Example 70, {1-{1-[3-methoxy-5-(trifluoromethyl)-2-thienylcarbonyl]piperidin-4-yl}-3-[4-(7H-pyrrolo[2,3-d]pyrimidin-4-yl)-1H-pyrazol-1-yl]azetidin-3-yl}acetonitrile] | –

Row | Compound | IC50 (Jak2 (a.a. 828-1132)) | IC50 [1] | IC50 Ratio JAK2/JAK1 [2]
21 | N#CCC1(n2cc(-c3ncnc4[nH]ccc34)cn2)CN(C2CC3CCC(C2)N3C(=O)C2CCC(F)(F)CC2)C1 (stereo not shown) [Example 148, {1-{8-[(4,4-difluorocyclohexyl)carbonyl]-8-azabicyclo[3.2.1]oct-3-yl}-3-[4-(7H-pyrrolo[2,3-d]pyrimidin-4-yl)-1H-pyrazol-1-yl]azetidin-3-yl}acetonitrile] | ≤ 10 nM | – | –
22 | N#CCC1(n2cc(-c3ncnc4[nH]ccc34)cn2)CN(C2CC3CCC(C2)N3C(=O)C2CCCCC2)C1 (stereo not shown) [Example 147, {1-[8-(cyclohexylcarbonyl)-8-azabicyclo[3.2.1]oct-3-yl]-3-[4-(7H-pyrrolo[2,3-d]pyrimidin-4-yl)-1H-pyrazol-1-yl]azetidin-3-yl}acetonitrile] | ≤ 10 nM | ≤ 5 nM | –
23 | N#CCC1(n2cc(-c3ncnc4[nH]ccc34)cn2)CN(C2CC3CCC(C2)N3C(=O)c2ccnc(C(F)(F)F)c2)C1 (stereo not shown) [Example 144, (3-[4-(7H-pyrrolo[2,3-d]pyrimidin-4-yl)-1H-pyrazol-1-yl]-1-{8-[2-(trifluoromethyl)isonicotinoyl]-8-azabicyclo[3.2.1]oct-3-yl}azetidin-3-yl)acetonitrile] | 10 to 50 nM | 5 to 20 nM | –
24 | N#CCC1(n2cc(-c3ncnc4[nH]ccc34)cn2)CN(C2CC3CCC(C2)N3C(=O)C2CCCC2)C1 (stereo not shown) [Example 145, {1-[8-(cyclopentylcarbonyl)-8-azabicyclo[3.2.1]oct-3-yl]-3-[4-(7H-pyrrolo[2,3-d]pyrimidin-4-yl)-1H-pyrazol-1-yl]azetidin-3-yl}acetonitrile] | 10 to 50 nM | 5 to 20 nM | –
